For test [1], the system named is NCI-H1944. Briefly: 3D cell viability (CTG). Type of test: cell-based. The following applies: Homo sapiens; NCI-H1944, KRAS G13D, 3D culture.
Protocol: (§1) To evaluate cell viability in 3D culture, cells in logarithmic growth phase were plated in growth medium containing 0.65% methylcellulose at an optimum seeding density. Cells were incubated overnight prior to treatment with different concentrations of the test article. Cells were cultured for an additional seven days and cell viability assessed using the CellTiterGlo™ (CTG) reagent, according to the manufacturer's instructions. In some instances, cells were grown in 3D culture as spheroids. Briefly, 2500 cells/well were seeded in round bottom ultra-low attachment 96-well plates (Corning) in growth media supplemented with 10% fetal bovine serum and 1% penicillin/streptomycin, and allowed to form spheroids for 72 hours at 37° C. in 5% CO2. […] Following drug exposure for five days, cell viability in spheroids was determined using the CellTiter-Glo assay kit.
Test [2] relates to SW837. Briefly: 3D cell viability (CTG). The format is cell-based. The settings on record: Homo sapiens; SW837, KRAS G12C, 3D culture.
Protocol: as §1
Test [3] relates to SNU-601. As to the kind of experiment: 3D cell viability (CTG). Type of test: cell-based. The settings on record: SNU-601, KRAS G12D, 3D culture.
Protocol: as §1
For test [4], the system named is KYSE-410. As to the kind of experiment: 3D cell viability (CTG). The format is cell-based. The settings on record: Homo sapiens; KYSE-410, KRAS G12C, 3D culture.
Protocol: as §1
Test [5] deals with Capan-1. As to the kind of experiment: 3D cell viability (CTG). Type of test: cell-based. The settings on record: Homo sapiens; Capan-1, KRAS G12V, 3D culture.
Protocol: as §1
For test [6], the system named is A549. As to the kind of experiment: 3D cell viability (CTG). Type of test: cell-based. The settings on record: Homo sapiens; A549, KRAS G12S, 3D culture.
Protocol: as §1
Test [7] deals with NCI-H2009. Briefly: 3D cell viability (CTG). Type of test: cell-based. The settings on record: Homo sapiens; NCI-H2009, KRAS G12A, 3D culture.
Protocol: as §1
In test [8] the test system is phosphorylated RTKs in MDA-MB-231 cells. Briefly: Phospho-RTK array. Type of test: cell-based. The settings on record: MDA-MB-231 (KRAS G13D), 24 hours; selumetinib 5 μM, Compound A 1 and 5 μM. How it is done: To determine the effects of test article(s) on levels of phosphorylated RTKs, MDA-MB231 cells were seeded in 6-well plates and incubated overnight in full growth medium. Cells were treated for 24 hours with selumetinib (5 μM) or Compound A (1 and 5 μM) or left untreated (DMSO control). Lysates were generated using the lysis buffer provided with the kit (Phospho-RTK Array; R&D systems) with inclusion of a protease inhibitor cocktail. To control for protein concentration, total protein levels were quantified using BCA reagent kit. The levels of phospho-RTK were determined according to the manufacturer's instructions.

The subject of test [9] is NCI-H358. As to the kind of experiment: 3D cell viability (CTG). Type of test: cell-based, human. The following applies: 3D culture.
Protocol: as §1
For test [10], the system named is caspase 3/7 activity in NCI-H358 cells. Briefly: Activated Caspase 3/7 assay in spheroids. Type of test: cell-based, human. The following applies: NCI-H358 spheroid cultures. The method, then: Activated Caspase 3/7 Assay in Spheroids. […] Immediately after seeding, cells were spun down at 1000 RPM for 5 minutes, and incubated at 37° C. in 5% CO2 for five days to allow for spheroid formation. Spheroid formation was confirmed visually. […] Caspase 3/7 activity was measured using the Caspase-Glo 3/7 Assay System (Promega), following the manufacturer's instructions. After addition of Caspase-Glo reagent, the well contents were pipetted several times and incubated at room temperature in the dark for 45 minutes to allow thorough cell lysis. 50 μL of the lysate/reaction was transferred to an opaque white 96-well ½ area plates (Perkin Elmer). Luminescence was read in an EnVision Multilabel Plate Reader (Perkin Elmer). Assay data was plotted using Prism 7 (GraphPad) software.

Test [11] deals with RAS-GTP in A549 cells. Briefly: RAS-GTP pulldown (Raf-RBD). Type of test: cell-based. The following applies: A549 (KRAS G12S), 6 hour and 24 hour. The method, then:
To determine the effects of small molecules on levels of activated RAS-GTPase, cell lines of interest were cultured under standard 2D culture conditions. Cells were seeded and following overnight incubation incubated at 37° C. with vehicle (DMSO) or test article(s). After an appropriate incubation period, cells were washed and cell lysis buffer added to prepare a cell lysate. The levels of Ras-GTP in the lysates were determined using affinity purification of a Raf-RBD (Ras binding domain of Raf)/GTP-Ras complex. In one approach, the Pierce Active Ras Pulldown and Detection Kit was used. Briefly, clarified lysates (500 μg total protein, quantified by BCA) were mixed with glutathione resin which had been preincubated with GST-Raf-RBD. The mixture was vortexed and incubated at 4° C. for 1 hour with gentle rocking. The resin was washed three times with lysis buffer and bound Ras-GTP eluted by addition of 2× reducing sample buffer. Eluted proteins were separated by SDS-PAGE using a 4-15% Tris-glycine gel (BioRad). Proteins were transferred to a nitrocellulose membrane for western blot using an anti-Ras antibody (Thermofisher, 1:200) and a Licor IRDye-800 anti-mouse secondary antibody (1:20,000). The Licor Odyssey CLx was used for visualization.

Test [12] concerns pERK in HEK293 cells expressing SOS-F. As to the kind of experiment: pERK analysis of HEK-293 SOS-WT and SOS-F. The format is cell-based. The settings on record: inducible expression of SOS-F. From the text: N-terminally HA-tagged SOS-WT and SOS-F constructs were synthesized (Atum) and subcloned into the pcDNA5/FRT/TO vector (ThermoFisher) using the following primers: SOS1-HA-F or 5′-[…]-3′ (SEQ ID NO: 1), SOS1-HA-REV 5′-[…]-3′ (SEQ ID NO: 2), and SOS-F-HA-REV 5′-[…]-3′ (SEQ ID NO: 3). SOS-WT and SOS-F plasmids were co-transfected with the pOG44 Flp-recombinase expression vector (ThermoFisher) into the HEK Flp-In T-Rex 293 cell line according to the manufacturer's protocol. Transfected cells were selected in drug media (200 μg/mL hygromycin B, 15 μg/mL blastidicin) and expression of SOS constructs was verified by western blot (SOS-1: Cell Signaling Technologies #5890; HA: Sigma 11867423001).
30,000 HEK-293 cells per well were plated in 96-well plates in Biotin-free RPMI (Hyclone) supplemented with 0.1% fetal bovine serum, 0.02% bovine serum albumin and 1% penicillin/streptomycin. Expression of SOS1 constructs was induced by the addition 0.1 μg/mL doxycycline (Sigma) for 24 hours. […] For the final 5 minutes of drug treatment, cells were stimulated with 50 ng/mL EGF (Sigma), lysed and subjected to ERK1/2 phosphorylation analysis as described above.

The test system of test [13] is p-ERK1/2 in Calu-1 cells. As to the kind of experiment: p-ERK AlphaLisa SureFire. Type of test: cell-based, human. The settings on record: Calu-1 cells (KRAS G12C). The method, then: Cells were plated at ˜20×10^3 cells per well and following overnight incubation were washed with serum-free media. Cells were then incubated for one hour with increasing concentrations of the test article in serum-free media containing 0.2% BSA prior to termination of the assay and measurement of pERK levels in cellular lysates by AlphaLisa SureFire Ultra kit conducted according to the manufacturer's instructions.
For orientation: Alpha assays give light when donor and acceptor beads are brought close together.

A word on the IC50: it is the point on the concentration scale where inhibition reaches its midpoint.

`Nc1nc(N2CCC3(CCC[C@H]3N)CC2)cnc1Sc1ccnc(Cl)c1Cl` [Compound A]: the half-inhibitory concentration (IC50) in test [1] was > 10 µM; in test [2] it was 0.3 µM; in [3], 2.9 µM; in test [4], 0.1 µM; in test [5], > 10 µM; in test [6], > 10 µM. In addition, the IC50 in test [7] came out at 0.3 µM; in test [9] (Homo sapiens, NCI-H358, KRAS G12C), 0.1 µM. The “feedback-driven p-RTK hyperactivation” value in [8] is recorded as “did not”. Besides, the cell viability entry in test [9] (H358 cells) was “concentration-dependent inhibition”.

Consider `Cc1nc(N2CCC3(CC2)CO[C@@H](C)[C@H]3N)c(CO)nc1-c1cccc(Cl)c1Cl` [Compound B], for which, in [10], the “caspase 3/7 activity” value is “robust caspase 3/7 activation”. In addition, in [11], the “RAS-GTP accumulation resulting from MEK inhibition by trametinib” value was “suppressed”. For the same compound, the “sensitivity of pERK signaling to SHP2 inhibition” value in test [12] is recorded as “insensitive”. Also, in test [13], the “inhibition of p-ERK1/2 levels” value is given as “concentration-dependent inhibition”.

(Values after patent US11596633B2, “SHP2 inhibitor compositions and methods for treating cancer” (Revolution Medicines, Inc., priority 2017, dated 2023).)
